Reference: the Deep4Chem optical property database
Blank lines part the entries; values can stand above or below the compound they belong to.

Assay: solvent given as SMILES
[1] = in c1cc(-n2c3ccccc3c3ccccc32)cc(-n2c3ccccc3c3ccccc32)c1
[2] = in O=P(c1ccccc1)(c1ccccc1)c1ccccc1Oc1ccccc1P(=O)(c1ccccc1)c1ccccc1

- fluorescence lifetime (in C1CCOC1): 2.8 ns
Structure (SMILES): FC(F)(F)c1ccc(C2=CC3=c4cc(-c5ccc(C(F)(F)F)cc5)c5nc(C(F)(F)C(F)(F)C(F)(F)F)nc6c(-c7ccc(C(F)(F)F)cc7)cc(c4c65)C4=CC(c5ccc(C(F)(F)F)cc5)=C5N=C(C(F)(F)C(F)(F)C(F)(F)F)N=C2C5C43)cc1 (centres undefined)

- fluorescence lifetime [1]: 6 ns
Structure (SMILES): c1ccc(-c2nc(-c3ccccc3)nc(-c3ccc(-c4ccc(N5c6ccccc6[Si](c6ccccc6)(c6ccccc6)c6ccccc65)cc4)cc3)n2)cc1

- fluorescence lifetime (in CCO): 5.52 ns
Structure (SMILES): CCCCCCCCCCCCN1C(=O)c2cccc3c(N(Cc4ccccn4)Cc4ccccn4)c4ccccc4c(c23)C1=O

Structure (SMILES): O=S(=O)(c1ccc(N(c2ccccc2)c2ccccc2)cc1)c1ccc(N(c2ccccc2)c2ccccc2)cc1
- fluorescence lifetime (in Cc1ccccc1): 2.2 ns
- fluorescence lifetime [2]: 3.5 ns

Structure (SMILES): O=S(=O)(c1ccc(N2c3ccccc3N(c3ccccc3)c3ccccc32)cc1)c1ccc(N2c3ccccc3N(c3ccccc3)c3ccccc32)cc1
- fluorescence lifetime (in Cc1ccccc1): 5.6 ns
- fluorescence lifetime [1]: 10 ns

- fluorescence lifetime (in ClC(Cl)Cl): 10.9 ns
Structure (SMILES): O=C1c2ccccc2-c2ccc(N3CCOCC3)c3cccc1c23

Structure (SMILES): CC1(C)c2ccccc2N(c2ccccc2)c2ccc(S(=O)(=O)c3ccc4c(c3)C(C)(C)c3ccccc3N4c3ccccc3)cc21
- fluorescence lifetime [2]: 2.06 ns

- fluorescence lifetime (in C1CCOC1): 3.65 ns
- fluorescence lifetime (in CC#N): 3.73 ns
- fluorescence lifetime (in CC(C)O): 4 ns
- fluorescence lifetime (in CC(O)CO): 4.28 ns
- fluorescence lifetime (in CCCCO): 4.6 ns
- fluorescence lifetime (in CCCO): 4.4 ns
- fluorescence lifetime (in CCO): 4.1 ns
- fluorescence lifetime (in CO): 6.1 ns
- fluorescence lifetime (in NC=O): 4.54 ns
- fluorescence lifetime (in O): 7 ns
- fluorescence lifetime (in O=CO): 8.1 ns
Structure (SMILES): N#Cc1ccc(C[C@H](N)C(=O)O)cc1

- fluorescence lifetime (in ClC(Cl)Cl): 6 ns
Structure (SMILES): COc1ccc2c(c1)c(C#N)cc1c(OC)c(OC)c3cc(C#N)c4cc(OC)ccc4c3c12

Structure (SMILES): CCN(CC)c1ccc(OC)c(C=O)c1
- fluorescence lifetime (in CC#N): 12.5 ns
- fluorescence lifetime (in CC(C)O): 0.96 ns
- fluorescence lifetime (in CCCCCC): 7.78 ns
- fluorescence lifetime (in CCOC(C)=O): 12.5 ns
- fluorescence lifetime (in CS(C)=O): 20.9 ns
- fluorescence lifetime (in Cc1ccccc1): 12.5 ns
- fluorescence lifetime (in ClCCl): 17 ns

Structure (SMILES): N#CC(C#N)=C(/C=C/c1cc2c3c(c1)CCCN3CCC2)c1ccc2c3c(cccc13)CC2
- fluorescence lifetime (in C1CCOC1): 5.6 ns
- fluorescence lifetime (in CC#N): 2.62 ns
- fluorescence lifetime (in CC(C)=O): 2.8 ns
- fluorescence lifetime (in CCOC(C)=O): 5.46 ns
- fluorescence lifetime (in CN(C)C=O): 2.67 ns
- fluorescence lifetime (in CO): 1.63 ns
- fluorescence lifetime (in Cc1ccccc1): 4.48 ns
- fluorescence lifetime (in ClC(Cl)Cl): 6.68 ns

- fluorescence lifetime (in CCO): 5.21 ns
- fluorescence lifetime (in O): 4.79 ns
Structure (SMILES): O=C([O-])c1ccc(C(=O)[O-])c(C2=c3cc4c5c(c3Oc3c2cc2c6c3CCCN6CCC2)CCC[N+]=5CCC4)c1

- fluorescence lifetime (in CC#N): 1.8 ns
Structure (SMILES): Cc1cccc2c1nc1c(=O)n(C)c(=O)nc-1n2C

- fluorescence lifetime (in C1CCCCC1): 4.6 ns
Structure (SMILES): c1ccc2c(c1)[nH]c1cccnc12

Structure (SMILES): O=C1c2ccccc2-c2cnccc21
- fluorescence lifetime (in CC#N): 6.7 ns
- fluorescence lifetime (in CCOC(C)=O): 2.4 ns
- fluorescence lifetime (in Cc1ccccc1): 2.2 ns
- fluorescence lifetime (in ClCCl): 6.1 ns

Structure (SMILES): CCCCN1C(=O)c2cc(Oc3ccc(C(C)(C)C)cc3)c3c4c(Oc5ccc(C(C)(C)C)cc5)cc5c(=O)n6c(c7cc(Oc8ccc(C(C)(C)C)cc8)c(c8c(Oc9ccc(C(C)(C)C)cc9)cc(c2c38)C1=O)c4c57)=Cc1cccc[n+]1[B-]6(F)F
- fluorescence lifetime (in C1CCOC1): 3.79 ns
- fluorescence lifetime (in Cc1ccccc1): 4.1 ns
- fluorescence lifetime (in ClCCl): 4.51 ns

- fluorescence lifetime (in ClCCl): 10.1 ns
Structure (SMILES): CC(C)(C)c1ccc(-c2nc3c4ccc(-c5ccccc5)cc4c4cc(-c5ccccc5)ccc4c3n2-c2ccc(C(C)(C)C)cc2)cc1

- fluorescence lifetime (in CC#N): 0.64 ns
Structure (SMILES): Cc1cc2nc3c(=O)n(C)c(=O)n(C)c3nc2cc1C

Structure (SMILES): Cc1nc2c(c[n+]1C)CN1C(=O)N([C@H]3O[C@@H](CO)[C@H](O)[C@@H]3O)C=CC1=N2
- fluorescence lifetime (in CC#N): 3.61 ns
- fluorescence lifetime (in CC(C)=O): 3.12 ns
- fluorescence lifetime (in CCCO): 0.39 ns
- fluorescence lifetime (in CCO): 0.47 ns
- fluorescence lifetime (in CO): 0.55 ns
- fluorescence lifetime (in O): 1.58 ns
- fluorescence lifetime (in [2H]OC): 0.58 ns
- fluorescence lifetime (in [2H]OCC): 0.5 ns
- fluorescence lifetime (in [2H]O[2H]): 1.86 ns

- fluorescence lifetime (in C1CCCCC1): 61 ns
Structure (SMILES): C[SiH](C)c1cccc2ccccc12

- fluorescence lifetime (in C1CCCCC1): 2.6 ns
- fluorescence lifetime (in ClCCl): 2.6 ns
Structure (SMILES): CC(C)[Si]1(C(C)C)c2cc(C#N)ccc2-c2ccc(N(C)C)cc21

Structure (SMILES): Cc1cc(-n2c3ccccc3c3cc4c(cc32)C2c3ccccc3C4c3ccccc32)c(C)cc1-c1nc(-c2ccccc2)nc(-c2ccccc2)n1
- fluorescence lifetime [2]: 10.5 ns

- fluorescence lifetime (in C1CCCCC1): 4.3 ns
Structure (SMILES): CC(C)(C)C#Cc1ccc2c3cccc4cccc(c5cccc1c52)c43

- fluorescence lifetime (in ClC(Cl)Cl): 0.315 ns
Structure (SMILES): F[B-]1(F)OC(c2cccc(Br)c2)=Cc2c3ccccc3c3ccccc3[n+]21

Structure (SMILES): CC(C)c1cccc(C(C)C)c1N1C(=O)c2cc(Cl)c3c4c(Cl)cc5c6c(cc(Cl)c(c7c(Cl)cc(c2c37)C1=O)c64)C(=O)N(c1c(C(C)C)cccc1C(C)C)C5=O
- fluorescence lifetime (in Cc1ccccc1): 5.11 ns

- fluorescence lifetime (in ClCCl): 2.97 ns
Structure (SMILES): c1ccc(-c2cc3c(-c4ccccc4)c4cccc5c(-c6ccccc6)cc6c(-c7ccccc7)c7cccc2c7c3c6c54)cc1

Structure (SMILES): O=c1c2cc(Cl)ccc2[nH]c2ccc(COO)cc12
- fluorescence lifetime (in O): 16.8 ns

- fluorescence lifetime (in ClC(Cl)Cl): 2.41 ns
Structure (SMILES): CC1(C)CC[N+]2=c3c(cc4c(c31)Oc1cc3c(cc1C=4c1ccccc1C(=O)O)C(c1ccccc1C(=O)O)=c1cc4c5c(c1O3)C(C)(C)CC[N+]=5CCC4)CCC2

Structure (SMILES): COc1ccc(C2=C(c3ccccc3)C(c3ccccc3)=[N+]3C2=Nc2c(-c4ccc(OC)cc4)c(-c4ccccc4)c(-c4ccccc4)n2[B-]3(F)F)cc1
- fluorescence lifetime (in Cc1ccccc1): 0.26 ns

Structure (SMILES): CC(C)(C)c1ccc2c(c1)[nH]c1c3[nH]c4cc(C(C)(C)C)ccc4c3c3nsnc3c21
- fluorescence lifetime (in CN(C)C=O): 2.29 ns
- fluorescence lifetime (in Cc1ccccc1): 1.5 ns
- fluorescence lifetime (in ClCCl): 2.61 ns

- fluorescence lifetime (in c1ccccc1): 6 ns
Structure (SMILES): O=c1oc2c(ccc3ccccc32)nc1-c1ccccc1

- fluorescence lifetime (in CC#N): 0.64 ns
Structure (SMILES): Cc1cc2nc3[nH]c(=O)n(C)c(=O)c3nc2cc1C

- fluorescence lifetime (in ClCCl): 11.9 ns
Structure (SMILES): CC(C)(C)NC(=O)c1ccc2ccc3cccc4c3c2c1c1c2ccccc2c2ccccc2c41

- fluorescence lifetime (in ClC(Cl)Cl): 0.14 ns
Structure (SMILES): F[B-]1(F)OC(c2ccc(C(F)(F)F)cc2)=Cc2c3ccccc3cc[n+]21

Structure (SMILES): O=C1CCCC2=C1CC1=C(CCCC1=O)N2NC(=O)c1ccc(O)cc1
- fluorescence lifetime (in CC#N): 6.2 ns
- fluorescence lifetime (in CC(C)=O): 5.6 ns
- fluorescence lifetime (in CCCCCO): 6.5 ns
- fluorescence lifetime (in CO): 4.8 ns
- fluorescence lifetime (in ClC(Cl)Cl): 8.2 ns
- fluorescence lifetime (in ClCCl): 5.4 ns

- fluorescence lifetime (in ClCCl): 5.85 ns
Structure (SMILES): CCCCCCCCCCCCN1C(=O)c2c(c3ccc4cc(-c5ccc(N(C)C)cc5)c(OC)cc4c3c3c2ccc2cc(-c4ccc(N(C)C)cc4)c(OC)cc23)C1=O

- fluorescence lifetime (in C1CCCCC1): 26 ns
- fluorescence lifetime (in CC#N): 31.2 ns
- fluorescence lifetime (in CO): 28.6 ns
- fluorescence lifetime (in ClCCl): 25.8 ns
Structure (SMILES): COc1c2ccccc2c(OC)c2c1c1ccc(C(F)(F)F)cc1n2C

Structure (SMILES): O=C1C(=c2c(=O)c3c4ccccc4cc4cc5ccccc5c2c43)C(=O)c2ccccc21
- fluorescence lifetime (in C1CCOC1): 10.7 ns
- fluorescence lifetime (in CC#N): 6.9 ns
- fluorescence lifetime (in CCCCCC): 12.4 ns
- fluorescence lifetime (in Cc1ccccc1): 11.3 ns
- fluorescence lifetime (in ClCCl): 8.7 ns

Structure (SMILES): Fc1c(F)c(-n2c3ccccc3c3ccccc32)c(F)c(-n2c3ccccc3c3ccccc32)c1-c1nnc(-c2ccccc2)o1
- fluorescence lifetime (in Cc1ccccc1): 4.8 ns

- fluorescence lifetime (in ClC(Cl)Cl): 1.29 ns
Structure (SMILES): CSc1ccc(C#Cc2ccc(C#Cc3ccc(C#Cc4ccccc4C#N)cc3C#N)cc2C#N)cc1
